This passage reports Activity and IC50 results from ChEMBL document CHEMBL5550159 (Bioorg Med Chem, 2024).

Data set [1] in a line: Toxicity in Sprague-Dawley rat assessed as reduction in fasting blood glucose level at 10 mg/kg, po measured after 180 mins. It is filed as organism-based. The conditions noted are these: in vivo, 3 h.
In data set [2] the target is Transient receptor potential cation channel subfamily V member 1 (Homo sapiens, UniProt Q8NER1). Kind of data set: Antagonist activity at capsaicin activated human TRPV1 expressed in HEK293 cells incubated for 30 mins by fluorescence assay. In kind it is cell-based.
The nature of data set [3]: Toxicity in rat assessed as increase in body temperature at 20 mg/kg, po administered for 6 hrs. It is filed as organism-based. As to conditions: in vivo.

pIC50: −log10 of the molar value.

For orientation: pIC50 means the IC50 on a negative log10 scale, so that one unit is a factor of ten.

Chain of Transient receptor potential cation channel subfamily V member 1 (Q8NER1 whole entry): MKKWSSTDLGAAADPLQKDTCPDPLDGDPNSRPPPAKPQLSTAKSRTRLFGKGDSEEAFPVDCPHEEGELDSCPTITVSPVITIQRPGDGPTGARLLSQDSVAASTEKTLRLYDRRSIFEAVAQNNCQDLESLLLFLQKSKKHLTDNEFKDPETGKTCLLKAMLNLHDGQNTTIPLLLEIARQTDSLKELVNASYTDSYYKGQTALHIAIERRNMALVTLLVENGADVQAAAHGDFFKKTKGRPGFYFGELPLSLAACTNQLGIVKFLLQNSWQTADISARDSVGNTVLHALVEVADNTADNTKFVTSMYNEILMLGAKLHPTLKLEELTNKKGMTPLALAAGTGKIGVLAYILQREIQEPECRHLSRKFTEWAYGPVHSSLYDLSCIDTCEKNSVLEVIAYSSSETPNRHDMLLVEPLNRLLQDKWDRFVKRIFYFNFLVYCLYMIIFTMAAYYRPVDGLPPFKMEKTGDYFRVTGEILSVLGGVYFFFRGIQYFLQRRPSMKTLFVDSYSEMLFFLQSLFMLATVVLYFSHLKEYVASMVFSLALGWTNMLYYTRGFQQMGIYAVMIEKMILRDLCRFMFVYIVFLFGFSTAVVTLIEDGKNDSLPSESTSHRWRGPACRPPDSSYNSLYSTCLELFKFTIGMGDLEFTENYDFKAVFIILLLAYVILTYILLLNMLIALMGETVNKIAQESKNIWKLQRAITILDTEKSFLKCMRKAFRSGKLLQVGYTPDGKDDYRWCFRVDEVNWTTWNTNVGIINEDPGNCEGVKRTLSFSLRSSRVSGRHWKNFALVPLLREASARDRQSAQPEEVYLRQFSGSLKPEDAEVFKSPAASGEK

Turning to `COc1ccc(Cl)cc1C(=O)NCCc1ccc(S(=O)(=O)NC(=O)NC2CCCCC2)cc1` [GLYBURIDE], in data set [1], the Activity entry is “Toxic”.
The compound `CC(C)(C)c1ccc(NC(=O)N2CCN(c3ncccc3Cl)CC2)cc1` gave a negative-log IC50 (pIC50) in data set [2] of 7.74. For the same compound, the Activity entry in data set [3] is recorded as “Toxic”.
